Laboratory results from publication PMC5536191 (ACS chemical biology, 2017).
“Also recorded” adds a separate entry of the source.

How the values were obtained:
T47D cells [1] = experiment: H3Cit26 and H3K27Me3 levels after estradiol stimulation; format: cell-based
MCF7 cells = experiment: as above; format: cell-based
T47D cells [2] = format: cell-based
Will-2 cells = experiment: H3K27Me3 levels in DLBCL cells; format: cell-based
PAD [3] = experiment: PAD inhibition by F-Amidine; format: biochemical; details: F-Amidine 1 mM, 15 min
PRC2 = details: F-Amidine 1 mM
PAD [4] = details: ref [46]; cited from earlier work
PRC2 complex = experiment: PRC2 methyltransferase activity on histone H3 after PAD preincubation; format: biochemical, human; details: PAD preincubation with H3; Figure S1A and B
UTX and JMJD3 = experiment: Co-immunoprecipitation with PAD2 in MCF7 nuclear extracts; format: binding; details: MCF7 nuclear extracts post E2 stimulation
ERα = experiment: Co-immunoprecipitation of PAD2 and ERα in MCF7 nuclear extracts; format: binding; details: MCF7 nuclear extracts post E2 stimulation

Molecule: C[C@]12CC[C@@H]3c4ccc(O)cc4CC[C@H]3[C@@H]1CC[C@@H]2O [E2, 17-β-estradiol]
- H3K27Me3 level (T47D cells [1]; 100 nM, 1 h): modest reduction in H3K27Me3 levels
- H3Cit26 signal (T47D cells [1]; E2 stimulation, after 2 h): greatly reduced
- H3K27Me3 level (MCF7 cells; 100 nM, 4 h): modest reduction in H3K27Me3 levels
- H3Cit26 signal (MCF7 cells; E2 stimulation, after 2 h): lost

Molecule: CCN(c1cc(-c2ccc(CN3CCOCC3)cc2)cc(C(=O)NCc2c(C)cc(C)[nH]c2=O)c1C)C1CCOCC1 [EPZ-6438]
- effect on baseline transcription before estradiol stimulation (T47D cells [2]; 5 μM EPZ-6438, 5 days, absence of estradiol): basal transcriptional level is increased relative to control cells; also recorded: increased baseline transcription prior to E2 stimulation
- effect on H3K27Me3 increase of PAD2 knockdown cells (Will-2 cells; PAD2 knockdown cells treated with EZH2 inhibitor): attenuated

Molecule: N=C(CF)NCCC[C@H](NC(=O)c1ccccc1)C(N)=O [F-Amidine, N-α-benzoyl-N5-(2-fluoro-1-iminoethyl)-L-ornithine amide]
- inhibition of PAD reaction (PAD [3]): completely inhibits the PAD reaction
- effect on methyltransferase activity of PRC2 (PRC2): no effect on the methyltransferase activity of PRC2
- PAD inhibition character (PAD [4]): highly selective, irreversible pan-PAD inhibitor

Molecule: PAD2: Protein Arginine Deiminase type-2
- effect on PRC2 catalyzed methylation, time and dose dependence (PRC2 complex): decrease PRC2 catalyzed methylation in a time- and dose-dependent manner
- co-immunoprecipitation with UTX and JMJD3 (UTX and JMJD3): co-immunoprecipitates UTX and JMJD3
- co-immunoprecipitation of PAD2 and ERα (ERα): PAD2 and ERα co-immunoprecipitate

Molecule: PAD4: Protein Arginine Deiminase type-4
- effect on PRC2 catalyzed methylation, time and dose dependence (PRC2 complex): decrease PRC2 catalyzed methylation in a time- and dose-dependent manner

Molecule: CCOC(=O)CCNc1cc(N2CCc3ccccc3CC2)nc(-c2ccccn2)n1 [GSK-J4]
- effect on E2-stimulated transcription of ERα-target genes (e.g. GDNF and KRT13) (T47D cells [2]; 400 nM GSK-J4, 5 days, baseline vs 60 min E2): downregulated

Molecule: N=C(CF)NCCC[C@H](NC(=O)c1ccc(-c2ccccc2)cc1)c1nc2ccccc2[nH]1 [BB-F-Amidine, N1-[1,4′-Phenyl]benzoyl-N5-(2-fluoro-1-inimoethyl)-1-(1H-benzo[d]imidazole-2-yl)-L-ornithine amide]
- H3K27Me3 increase by PAD inhibitor in EZH2 knockdown cells (Will-2 cells; EZH2 knockdown cells treated with PAD inhibitor): attenuated
- increase in H3K27Me3 levels (Will-2 cells; PAD inhibitor treatment, DLBCL line (Will-2)): 4 fold
